Patent publication US10722480B2, “Agent for controlling cells constituting cancer microenvironment or inflammatory microenvironment” (The University of Tokyo, priority 2015, dated 2020)
Read-outs that look alike come from different tables or passages of the source.

Legend:
[1] = molecular target: T1, FROUNT-CCR2 interaction (Homo sapiens, UniProt Q9BW27); assay: HTRF binding inhibition assay, FROUNT-CCR2 interaction
T1 construct: made in house
T1 sequence (Q9BW27 500-656): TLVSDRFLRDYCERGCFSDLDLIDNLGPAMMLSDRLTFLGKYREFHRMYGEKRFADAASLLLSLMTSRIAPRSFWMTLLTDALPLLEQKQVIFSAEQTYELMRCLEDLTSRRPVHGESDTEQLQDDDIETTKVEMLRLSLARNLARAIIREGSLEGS
Procedure: For the screening, a compound library containing 131,200 kinds of compounds dissolved in DMSO at a concentration of 10 mM or 2 mM (obtained from Open Innovation Center for Drug Discovery, the University of Tokyo) was used. The HTRF assay was carried out using a 384-well low-dose white microplate (Corning Coaster; catalog number 3676). In each well, 4 μL of a solution of 20 nM GST fusion FROUNT protein (a recombinant polypeptide prepared by fusing GST to aa 500-656 of SEQ ID NO:2), and DMSO or test compounds were mixed with a binding buffer (10 mM HEPES [pH 7.4], 0.2 M potassium fluoride, 10 mM NaCl, 0.1% Tween 20, and 0.5% bovine serum albumin [BSA]), and the plate was incubated at room temperature for 30 minutes. […]. After incubation at room temperature for 20 hours, the HTRF signal was measured at emission wavelengths of 620 nm and 665 nm using a multilabel counter EnVision (PerkinElmer).
(§1) By the same HTRF assay as described above, the abilities of disulfiram to inhibit the FROUNT-CCR2 interaction or the FROUNT-CCR5 interaction were investigated. As the CCR5 pro-C peptide, the 16 residues […] (SEQ ID NO:4) in the C-terminal region of CCR5 was used. As a control, the p53-MDM2 interaction (which is inhibited by an MDM-2-specific inhibitor Nutlin), which is also a helix peptide-protein interaction like the interaction between FROUNT and CCR2 or CCR5 but is not related thereto, was used.

[2] = molecular target: p53-MDM2 interaction (Homo sapiens, UniProt Q00987); assay: HTRF binding inhibition assay, p53-MDM2 control interaction; conditions: p53-MDM2 control interaction
From the text: as §1

[3] = molecular target: T2, aldehyde dehydrogenase (ALDH) (Rattus norvegicus, UniProt P11884); conditions: Excerpt from Alcohol Clin Exp Res 1996.20.595-; read-out: ALDH inhibition; cited from earlier work
T2 sequence (P11884 20-519): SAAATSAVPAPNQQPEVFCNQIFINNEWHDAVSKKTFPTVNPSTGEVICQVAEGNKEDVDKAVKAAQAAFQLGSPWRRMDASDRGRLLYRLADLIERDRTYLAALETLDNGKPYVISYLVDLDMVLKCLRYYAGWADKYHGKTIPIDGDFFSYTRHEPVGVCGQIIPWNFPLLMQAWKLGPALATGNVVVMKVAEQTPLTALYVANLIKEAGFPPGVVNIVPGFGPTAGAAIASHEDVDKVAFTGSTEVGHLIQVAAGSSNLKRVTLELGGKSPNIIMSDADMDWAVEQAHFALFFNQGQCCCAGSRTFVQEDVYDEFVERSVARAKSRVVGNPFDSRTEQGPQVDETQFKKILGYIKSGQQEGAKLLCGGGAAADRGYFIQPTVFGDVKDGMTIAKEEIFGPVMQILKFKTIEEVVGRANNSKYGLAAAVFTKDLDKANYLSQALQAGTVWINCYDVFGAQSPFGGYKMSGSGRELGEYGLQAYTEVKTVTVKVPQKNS

[4] = test system: B16F10 melanoma cells; assay: Lung metastasis model (B16F10); assay type: in vivo, mouse; conditions: B16F10 via tail vein, Day 9 post tumor administration
Procedure: To provide a lung metastasis model, 1×10^6 B16F10 melanoma cells were suspended in 200 μL of PBS, and administered from the tail vein of each of wild-type C57BL/6 mice. Administration of the inhibitor was carried out one day before, 30 minutes before, and one day after the tumor administration. To provide a control, DMSO and a pyrimidine fluoride anticancer drug 5-FU were administered. The mice were euthanized on Day 9 post tumor administration, and PBS was perfused from the left ventricle, followed by isolation of lungs. Visible lung metastatic lesions in the left lobe were counted.

[5] = test system: LLC tumor cells; assay: LDH cytotoxicity assay, LLC tumor cells; assay type: cell-based
Procedure: (§2) The cytotoxicity of inhibitors was tested by using LDH Cytotoxicity Detection Kit (TaKaRa) according to the manufacturer's instructions. Briefly, tumor cells were cultured in the presence or absence of an agent (disulfiram or 5FU) for 72 hours, and the culture supernatant was then collected and tested for the concentration of lactate dehydrogenase released from damaged cells. For measurement of cell proliferation, cells were incubated in a plate well together with an inhibitor for 48 hours. During the last 30 minutes, WST-1 (Dojindo Laboratories) was added to the culture liquid, and the absorbance of each well was measured at 450 nm versus 650 nm reference using EnVision (PerkinElmer) to detect the formazan level.

[6] = test system: B16F10 melanoma cells; assay: LDH cytotoxicity assay, B16F10 melanoma cells; assay type: cell-based
Procedure: as §2

[7] = test system: B16F10 melanoma cells; assay: WST-1 proliferation assay, B16F10 melanoma cells; assay type: cell-based; conditions: WST-1, 48 hours
Procedure: as §2

[8] = HTRF, read-out: FROUNT inhibition (IC50 against FROUNT-CCR2)

Sequence of p53-MDM2 interaction (Q00987 whole entry): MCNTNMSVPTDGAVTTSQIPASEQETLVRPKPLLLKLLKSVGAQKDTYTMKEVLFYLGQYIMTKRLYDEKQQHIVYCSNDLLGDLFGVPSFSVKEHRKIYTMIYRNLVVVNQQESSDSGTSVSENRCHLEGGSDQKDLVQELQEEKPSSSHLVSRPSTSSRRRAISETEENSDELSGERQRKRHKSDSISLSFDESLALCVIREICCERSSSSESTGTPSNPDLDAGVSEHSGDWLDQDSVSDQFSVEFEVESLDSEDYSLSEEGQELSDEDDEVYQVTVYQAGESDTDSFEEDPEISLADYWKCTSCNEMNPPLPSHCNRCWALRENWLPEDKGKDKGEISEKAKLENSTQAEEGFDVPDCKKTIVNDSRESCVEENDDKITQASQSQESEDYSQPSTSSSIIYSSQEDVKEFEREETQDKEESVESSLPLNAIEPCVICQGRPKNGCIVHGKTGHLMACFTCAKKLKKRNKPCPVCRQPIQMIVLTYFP

IC50 [1, 8]	IC50 [2]	SMILES	IC50 [3]	also measured
–	–	CCN(CC)C(=S)S [DDC, sodium diethyldithiocarbamate]	–	IC50 [1]: 0.137 µM
> 1 µM	> 1 µM	CCN(CC)C(=O)S(C)(=O)=O [Me-DTC sulfone]	0.53 µM	–
–	–	O=c1[nH]cc(F)c(=O)[nH]1 [5FU]	–	formation of lung metastatic lesions [4]: did not reduce; cytotoxic activity on LLC tumor cells [5]: completely killed; cytotoxic activity on B16F10 melanoma cells [6]: showed cytotoxic activity; growth-inhibiting action on B16F10 melanoma cells [7]: growth-inhibiting action
> 1 µM	> 1 µM	CCN(CC)C(=O)[S+](C)[O-] (stereo not drawn) [Me-DTC sulfoxide]	0.93 µM	–

SMILES	IC50 [1, 8]	IC50 [2]	IC50 [3]	also measured
CCN(CC)C(=S)[S-].CCN(CC)C(=S)[S-].CCN(CC)C(=S)[S-].[Fe+3] [iron (III) complex of DDC]	0.0092 µM	–	–	–
